Converted amounts (≈) assume the structure as drawn.
Columns and labels:
[1] = Isoelectric point (pI) by isoelectrofocusing with bioautography detection; type: physicochemical; details: IEF technique, polyacrylamide gel
Source text: The isoelectrofocusing (IEF) technique coupled with bioautography detection has been used for the determination of the pI of representative compounds of the invention using the following materials: AMPHOLINE carrier ampholytes (40% w/v) were purchased from LKB Produketer AB, Bromma, Sweden. Acrylamide, N,N'-methylenbisacrylamide (BIS), N,N,N',N'-tetramethylethylenediamine (TEMED) and ammonium persulfate were from Bio Rad Laboratorie, Richmond, Calif., USA. Glycerol and Antibiotic agar N. 1 (Grove and Randall medium N. 1) were from E. Merck Darmstadt FRG. GEL FIX polyester sheets were purchased from Serva Feinbiochemica Heidelberg. Phenolindo (2,6-dichlorophenol) came from BDH Chemicals Ltd. Poole, England.
IEF was made on gel slab using a LKB MULITPHOR 2117 cell and a Bio-Rad Power Supply Model 1420A. Slabs of 24.5×11.5 cm and 1 mm thickness were prepared on a sheet of GEL FIX. Polyacrylamide gels with a concentration of 8% T and with a cross-linkage of 4% C (30% T stock solution was prepared by dissolving 28.8 g of acrylamide and 1.2 g of bis-acrylamide in 100 ml distilled water), glycerol, 3.5% v/v, 2% AMPHOLINE, 0.05% ammonium persulphate as catalyst and 0.05% TEMED as accelerator. The carrier ampholite composition for 35 ml gelling solution was as follows:
The electrode solutions, as recommended by LKB for the respective pH range, were:
The gel was cooled to 4° C. with the aid of a LKB 2209 refrigerated constant temperature circulator. After prefocusing for 30 min. at 5 W, the samples (20 μl containing 0.2 to 2.5 μg of antibiotic) were loaded into the slot at the cathodic side. Electrofocusing was performed using 10 W constant power and was completed after 3-31/2 hours with a final potential of 1400 V.
The pH values were determined by dividing a portion of the gel into 1 cm sections, and eluting the individual pieces at room temperature with 1 ml of 10 mM KCl prior to pH readings.
The isoelectric point of each antibiotic was determined by interpolation on a curve obtained by plotting pH values versus the distance from the anode.
Polyacrylamide gel was placed on a 3 mm layer of agar medium N. 1 inoculated with 1% of Bacillus subtilis ATCC 6633 spore (0.5 OD at 600 nm). After 10 min the gel was removed and the plate was incubated overnight at 37° C. and examined for inhibition zones. The contrast between the area of lysis and that of bacterial growth was enhanced by use of Phenolindo(2,6-dichlorophenol) 1% w/v (oxidation-reduction indicator).

Acid-base titration (pK) = type: physicochemical; details: acid-base titration in METHYLCELLOSOLVE/H2O 4:1 (v/v), 0.01N KOH; for pK1 / pK2: salt form per Table IV
Description: The following table (Table IV) reports the acid-base titration data of some representative compounds of the invention. The assays were carried out in METHYLCELLOSOLVE/H2 O, 4:1(v/v). A sample is dissolved in METHYLCELLOSOLVE/H2 O, 4:1(v/v) (10 umole in about 20 ml) and then 0.01N HCl (2 ml) is added and the mixture is titrated with 0.01N KOH in the same solvent mixture.

[2] = system: Proteus vulgaris X 19H ATCC 881; assay: In vitro antibacterial activity, standard agar-dilution test (MIC); type: cell-based; details: inoculum about 10^4 CFU/ml, 18-24 h at 37° C.
Description: (§1) The culture medium ISOSENSITEST BROTH (Oxoid) and the colture medium TODD-[…] BROTH (Difco) are used for growing staphylococci and streptococci, respectively. Broth cultures are diluted so that the final inoculum is about 10^4 colony forming units/ml (CFU/ml).

S. faecalis ATCC 7080 = assay: as above; type: cell-based; details: inoculum about 10^4 CFU/ml, 18-24 h at 37° C.
Description: as §1

[3] = system: Pseudomonas aeruginosa ATCC 10145; assay: as above; type: cell-based; details: inoculum about 10^4 CFU/ml, 18-24 h at 37° C.
Description: as §1

E. coli SKF 12140 = assay: as above; type: cell-based; details: inoculum about 10^4 CFU/ml, 18-24 h at 37° C.
Description: as §1

S. pyogenes C 203 = assay: as above; type: cell-based; details: inoculum about 10^4 CFU/ml, 18-24 h at 37° C.
Description: as §1

S. aureus Tour = assay: as above; type: cell-based; details: inoculum about 10^4 CFU/ml, 18-24 h at 37° C.
Description: as §1

[4] = system: S. epidermidis ATCC 12228; assay: as above; type: cell-based; details: inoculum about 10^4 CFU/ml, 18-24 h at 37° C.
Description: as §1

S. pneumoniae UC 41 = assay: as above; type: cell-based; details: inoculum about 10^4 CFU/ml, 18-24 h at 37° C.
Description: as §1

S. pyogenes L 49 = assay: In vivo test in mice experimentally infected with S. pyogenes L 49 (ED50); details: mice infected with S. pyogenes L 49; for ED50, route of administration os.: oral

Structure (SMILES) | Isoelectric point (pI) [1] | pK1 (Acid-base titration (pK)) | pK2 (Acid-base titration (pK)) | MIC Proteus vulgaris X 19H ATCC 881 [2] | MIC S. faecalis ATCC 7080 (S. faecalis ATCC 7080) | MIC Pseudomonas aeruginosa ATCC 10145 [3] | MIC E. coli SKF 12140 (E. coli SKF 12140) | MIC S. pyogenes C 203 (S. pyogenes C 203) | MIC S. aureus Tour (S. aureus Tour) | MIC S. epidermidis ATCC 12228 [4] | MIC S. pneumoniae UC 41 (S. pneumoniae UC 41) | ED50, route of administration os. (S. pyogenes L 49) | ED50, route of administration s.c (S. pyogenes L 49) | pK3 (Acid-base titration (pK); value not in brackets)
CC(=O)NC1C(OC2c3ccc(c(Cl)c3)Oc3cc4cc(c3O)Oc3ccc(cc3Cl)CC3NC(=O)C(N)c5ccc(O)c(c5)Oc5cc(O)cc(c5)C(NC3=O)C(=O)NC4C(=O)NC3C(=O)NC2C(=O)NC(C(=O)NCCN2CCOCC2)c2cc(O)cc(O)c2-c2cc3ccc2O)OC(CO)C(O)C1O (stereo not drawn) [Compound 14] | 8.0 | 5.3 | 6.8 | > 128 µg/mL | 0.5 µg/mL (≈ 0.33 µM) | > 128 µg/mL | > 128 µg/mL | 0.5 µg/mL (≈ 0.33 µM) | 0.5 µg/mL (≈ 0.33 µM) | 0.12 µg/mL (≈ 0.0792 µM) | 1 µg/mL (≈ 0.66 µM) | – | – | –
NC1C(=O)NC2Cc3ccc(c(Cl)c3)Oc3cc4cc(c3O)Oc3ccc(cc3Cl)C(O)C3NC(=O)C(NC(=O)C4NC(=O)C(NC2=O)c2cc(O)cc(c2)Oc2cc1ccc2O)c1ccc(O)c(c1)-c1c(O)cc(O)cc1C(C(=O)NCCN1CCCC1)NC3=O (stereo not drawn) [Compound 22] | 8.8 | 6.4 | 7.8 | 64 µg/mL (≈ 49.4 µM) | 0.12 µg/mL (≈ 0.0927 µM) | 64 µg/mL (≈ 49.4 µM) | 8 µg/mL (≈ 6.18 µM) | 0.06 µg/mL (≈ 0.0463 µM) | 0.12 µg/mL (≈ 0.0927 µM) | 0.016 µg/mL (≈ 0.0124 µM) | 0.12 µg/mL (≈ 0.0927 µM) | > 300 mg/kg | 1.6 mg/kg | –
COC(=O)C(CCCCN)NC(=O)C1NC(=O)C2NC(=O)C(NC(=O)C3NC(=O)C4NC(=O)C(Cc5ccc(c(Cl)c5)Oc5cc3cc(c5O)Oc3ccc(cc3Cl)C2O)NC(=O)C(N)c2ccc(O)c(c2)Oc2cc(O)cc4c2)c2ccc(O)c(c2)-c2c(O)cc(O)cc21.Cl.Cl (stereo not drawn) [Compound 73] | – | – | 6.5 | 32 µg/mL | 0.12 µg/mL | 32 µg/mL | 4 µg/mL | 0.12 µg/mL | 0.06 µg/mL | 0.06 µg/mL | 0.06 µg/mL | > 300 mg/kg | 0.81 mg/kg | 8.9
Cl.Cl.NC1C(=O)NC2Cc3ccc(c(Cl)c3)Oc3cc4cc(c3O)Oc3ccc(cc3Cl)C(O)C3NC(=O)C(NC(=O)C4NC(=O)C(NC2=O)c2cc(O)cc(c2)Oc2cc1ccc2O)c1ccc(O)c(c1)-c1c(O)cc(O)cc1C(C(=O)NCCCN1CCOCC1)NC3=O (stereo not drawn) [Compound 78] | 8.1 | – | – | 64 µg/mL | 0.12 µg/mL | 32 µg/mL | 8 µg/mL | 0.06 µg/mL | 0.06 µg/mL | 0.06 µg/mL | 0.12 µg/mL | > 300 mg/kg | 1.4 mg/kg | –
Cl.Cl.NC1C(=O)NC2Cc3ccc(c(Cl)c3)Oc3cc4cc(c3O)Oc3ccc(cc3Cl)C(O)C3NC(=O)C(NC(=O)C4NC(=O)C(NC2=O)c2cc(O)cc(c2)Oc2cc1ccc2O)c1ccc(O)c(c1)-c1c(O)cc(O)cc1C(C(=O)NC1CN2CCC1CC2)NC3=O (stereo not drawn) [Compound 83] | 8.9 | – | – | 64 µg/mL | 0.12 µg/mL | 32 µg/mL | 8 µg/mL | 0.06 µg/mL | 0.12 µg/mL | 0.06 µg/mL | 0.06 µg/mL | > 300 mg/kg | 0.46 mg/kg | –
NCCCCC(NC(=O)C1NC(=O)C2NC(=O)C(NC(=O)C3NC(=O)C4NC(=O)C(Cc5ccc(c(Cl)c5)Oc5cc3cc(c5O)Oc3ccc(cc3Cl)C2O)NC(=O)C(N)c2ccc(O)c(c2)Oc2cc(O)cc4c2)c2ccc(O)c(c2)-c2c(O)cc(O)cc21)C(=O)O (stereo not drawn) [Compound 84] | 7.8 | – | – | > 128 µg/mL | 0.12 µg/mL (≈ 0.0904 µM) | > 128 µg/mL | 64 µg/mL (≈ 48.2 µM) | 0.12 µg/mL (≈ 0.0904 µM) | 0.12 µg/mL (≈ 0.0904 µM) | 0.06 µg/mL (≈ 0.0452 µM) | 0.12 µg/mL (≈ 0.0904 µM) | > 300 mg/kg | 1.65 mg/kg | –
CN(C)CCCCCNC(=O)C1NC(=O)C2NC(=O)C(NC(=O)C3NC(=O)C4NC(=O)C(Cc5ccc(c(Cl)c5)Oc5cc3cc(c5O)Oc3ccc(cc3Cl)C2O)NC(=O)C(N)c2ccc(O)c(c2)Oc2cc(O)cc4c2)c2ccc(O)c(c2)-c2c(O)cc(O)cc21 (stereo not drawn) [Compound 100] | 9.0 | – | – | 128 µg/mL (≈ 97.6 µM) | 0.12 µg/mL (≈ 0.0915 µM) | 64 µg/mL (≈ 48.8 µM) | 8 µg/mL (≈ 6.1 µM) | 0.06 µg/mL (≈ 0.0458 µM) | 0.06 µg/mL (≈ 0.0458 µM) | 0.06 µg/mL (≈ 0.0458 µM) | 0.12 µg/mL (≈ 0.0915 µM) | – | – | –
CN(C)CCCCCCCNC(=O)C1NC(=O)C2NC(=O)C(NC(=O)C3NC(=O)C4NC(=O)C(Cc5ccc(c(Cl)c5)Oc5cc3cc(c5O)Oc3ccc(cc3Cl)C2O)NC(=O)C(N)c2ccc(O)c(c2)Oc2cc(O)cc4c2)c2ccc(O)c(c2)-c2c(O)cc(O)cc21 (stereo not drawn) [Compound 101] | 9.1 | – | – | 128 µg/mL (≈ 95.6 µM) | 0.12 µg/mL (≈ 0.0896 µM) | 128 µg/mL (≈ 95.6 µM) | 16 µg/mL (≈ 11.9 µM) | 0.06 µg/mL (≈ 0.0448 µM) | 0.06 µg/mL (≈ 0.0448 µM) | 0.06 µg/mL (≈ 0.0448 µM) | 0.12 µg/mL (≈ 0.0896 µM) | – | – | –
